For test [1], the system named is Candida albicans. The test is described as follows: Antifungal activity against Candida albicans ATCC 3153 assessed as death stimulation in vitro pharmacokinetic-pharmacodynamic model. In kind it is functional, organism-based.
Test [2] deals with Candida albicans. In words: Antifungal activity against Candida albicans ATCC 3153 assessed as maximum killing rate in vitro pharmacokinetic-pharmacodynamic model. It counts as functional.
Test [3] has as its system Candida albicans. The test is described as follows: Antifungal activity against Candida albicans ATCC 3153 after 48 hrs. It counts as functional. Particulars: ATCC 3153, 48 h.
The test system of test [4] is Candida albicans. The test is described as follows: Antifungal activity against Candida albicans ATCC 3153 in vitro pharmacokinetic-pharmacodynamic model. In kind it is functional, organism-based.

Two compounds from ChEMBL document CHEMBL1255264, “Mechanism-based pharmacokinetic-pharmacodynamic models of in vitro fungistatic and fungicidal effects against Candida albicans” (Antimicrob Agents Chemother, 2008) can be followed below.

In brackets after ≈: the same amount, converted by molar mass.

A word on the EC50: it is the concentration needed to bring the measured effect to its halfway point. Broadly, the MIC is the least concentration at which growth counts as inhibited. A lower MIC goes with inhibition by little substance. For `CC[C@H](C)C[C@H](C)CCCCCCCCC(=O)N[C@H]1C[C@@H](O)[C@@H](NCCN)NC(=O)[C@@H]2[C@@H](O)CCN2C(=O)[C@H]([C@H](O)CCN)NC(=O)[C@H]([C@H](O)[C@@H](O)c2ccc(O)cc2)NC(=O)[C@@H]2C[C@@H](O)CN2C(=O)[C@H]([C@@H](C)O)NC1=O` [CASPOFUNGIN], the EC50 in test [1] is 0.000251 µg/mL (≈ 0.00023 µM). Besides, the Emax in test [2] was determined as 8.04 ×10⁻¹ /hr. In test [3], this compound gave an MIC of 0.015 µg/mL (≈ 0.0137 µM).

Usually IC50 stands for the concentration that gives 50% inhibition. Read a low IC50 as higher potency. In test [4], `OC(Cn1cncn1)(Cn1cncn1)c1ccc(F)cc1F` [FLUCONAZOLE] came in with an IC50 of 0.0929 µg/mL (≈ 0.303 µM).
